One compound from ChEMBL document CHEMBL1212923, “Synthesis and in vivo evaluation of phenethylpiperazine amides: selective 5-hydroxytryptamine(2A) receptor antagonists for the treatment of insomnia” (J Med Chem, 2010) can be followed below.

Each structure is given as a SMILES string. The source made the active and inactive calls. The calls are words filed in the database; no cut-off is given here. Some results are limits rather than exact numbers.

The nature of data set [1]: Half life in Sprague-Dawley rat at 10 mg/kg, po. Format: ADME, organism-based. Further details: dose 10 mg/kg, route oral. The note with it: in vivo.
The nature of data set [2]: Half life in rat liver microsomes. Format: ADME, Microsome.
In data set [3] the test system is Rattus norvegicus. The experiment in a line: Inhibition of DOI-induced hypolocomotion in po dosed Sprague-Dawley rat administered 25 mins before DOI challenge measured after 10 mins. Format: functional, organism-based. The note with it: Rattus norvegicus, Sprague-Dawley, po.
For the next data set, the target named is Cytochrome P450 3A4 (Homo sapiens, UniProt P08684). The experiment in a line: Inhibition of CYP3A4 in human liver microsomes. It is filed as ADME, Microsome.
Chain of Cytochrome P450 3A4 (P08684 whole entry): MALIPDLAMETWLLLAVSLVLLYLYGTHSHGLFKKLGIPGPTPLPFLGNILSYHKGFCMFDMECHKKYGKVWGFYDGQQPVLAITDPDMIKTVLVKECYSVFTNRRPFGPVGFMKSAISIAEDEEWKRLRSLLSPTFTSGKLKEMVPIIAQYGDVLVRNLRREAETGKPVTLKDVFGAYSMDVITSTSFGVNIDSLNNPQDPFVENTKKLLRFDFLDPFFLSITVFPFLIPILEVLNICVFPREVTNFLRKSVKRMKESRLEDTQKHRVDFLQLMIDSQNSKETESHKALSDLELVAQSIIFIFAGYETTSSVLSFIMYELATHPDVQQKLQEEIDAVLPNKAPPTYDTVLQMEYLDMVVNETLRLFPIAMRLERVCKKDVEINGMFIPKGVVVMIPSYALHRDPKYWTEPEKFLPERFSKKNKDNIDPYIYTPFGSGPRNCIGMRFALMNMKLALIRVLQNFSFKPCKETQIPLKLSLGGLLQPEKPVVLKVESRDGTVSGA
Data set [4] deals with Rattus norvegicus. The experiment in a line: Volume of distribution at steady state in Sprague-Dawley rat at 10 mg/kg, po. Further details: dose 10 mg/kg, route oral. It is filed as ADME, organism-based. The note with it: in vivo.
The subject of data set [5] is Rattus norvegicus. In words: Effect on behavioral activity in po dosed Sprague-Dawley rat assessed as increase in sleep consolidation after 5 hrs. Format: functional, organism-based.
The next data set concerns the target T1, Cytochrome P450 1A2 (Homo sapiens, UniProt P05177).
T1 sequence (P05177 whole entry): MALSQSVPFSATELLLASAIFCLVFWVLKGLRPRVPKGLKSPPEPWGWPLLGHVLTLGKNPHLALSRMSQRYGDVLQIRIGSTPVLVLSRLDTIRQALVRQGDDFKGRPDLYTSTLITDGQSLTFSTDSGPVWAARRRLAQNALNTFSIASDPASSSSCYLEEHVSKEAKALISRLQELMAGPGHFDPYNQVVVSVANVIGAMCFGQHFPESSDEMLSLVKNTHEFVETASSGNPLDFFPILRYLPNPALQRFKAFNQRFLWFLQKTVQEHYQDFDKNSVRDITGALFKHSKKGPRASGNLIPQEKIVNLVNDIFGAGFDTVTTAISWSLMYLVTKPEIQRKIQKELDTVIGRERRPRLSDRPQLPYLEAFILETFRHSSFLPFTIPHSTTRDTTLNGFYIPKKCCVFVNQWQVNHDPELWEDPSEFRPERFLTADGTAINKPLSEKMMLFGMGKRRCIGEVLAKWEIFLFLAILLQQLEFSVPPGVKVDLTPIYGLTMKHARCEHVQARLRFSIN
The experiment in a line: Inhibition of CYP1A2 in human liver microsomes. It is filed as ADME, Microsome.

Data set [6] is described as follows: Cmax in Sprague-Dawley rat at 10 mg/kg, po. As to conditions: in vivo. Format: ADME, organism-based. Further details: dose 10 mg/kg, route oral.
Data set [7] deals with Rattus norvegicus. In words: Effect on behavioral activity in Sprague-Dawley rat assessed as increase in deep sleep at 0.1 mg/kg, po after 1 hr. It is filed as functional, organism-based. Further details: dose 0.1 mg/kg.
Data set [8] can be described thus: Oral bioavailability in Sprague-Dawley rat at 10 mg/kg relative to 2 mg/kg, iv dose. Format: ADME, organism-based. The note with it: in vivo.
Data set [9] has as its system Rattus norvegicus. The experiment in a line: Inhibition of DOI-induced hypolocomotion in Sprague-Dawley rat at 1 mg/kg, po administered 25 mins before DOI challenge measured after 10 mins. It is filed as functional.
In a further data set the target is Cytochrome P450 2C19 (Homo sapiens, UniProt P33261). In words: Inhibition of CYP2C19 in human liver microsomes. Format: ADME, Microsome.
Chain of Cytochrome P450 2C19 (P33261 whole entry): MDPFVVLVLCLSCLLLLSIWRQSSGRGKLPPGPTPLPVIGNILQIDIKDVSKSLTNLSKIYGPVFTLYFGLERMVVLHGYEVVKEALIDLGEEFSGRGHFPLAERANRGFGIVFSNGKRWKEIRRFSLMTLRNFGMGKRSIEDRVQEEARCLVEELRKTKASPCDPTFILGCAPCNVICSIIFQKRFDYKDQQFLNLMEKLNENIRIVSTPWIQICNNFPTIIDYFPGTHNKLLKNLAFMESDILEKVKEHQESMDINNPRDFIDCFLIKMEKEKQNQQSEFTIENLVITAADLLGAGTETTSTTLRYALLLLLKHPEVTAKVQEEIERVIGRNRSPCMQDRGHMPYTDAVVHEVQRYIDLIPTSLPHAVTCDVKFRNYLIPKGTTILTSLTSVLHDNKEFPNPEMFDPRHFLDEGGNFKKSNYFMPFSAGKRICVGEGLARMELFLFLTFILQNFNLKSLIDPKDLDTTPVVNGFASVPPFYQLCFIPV
Data set [10] can be described thus: Drug level in Sprague-Dawley rat plasma at 0.3 mg/kg, po after 0.75 hrs. It is filed as ADME, organism-based. Further details: dose 0.3 mg/kg, route oral. The note with it: read-out: Drug uptake.
Another data set addresses Cytochrome P450 2D6 (Homo sapiens, UniProt P10635). In words: Inhibition of CYP2D6 in human liver microsomes. It is filed as ADME, Microsome.
The target of the next data set is Cytochrome P450 2C9 (Homo sapiens, UniProt P11712). The experiment in a line: Inhibition of CYP2C9 in human liver microsomes. It is filed as ADME, Microsome.
Chain of Cytochrome P450 2C9 (P11712 whole entry): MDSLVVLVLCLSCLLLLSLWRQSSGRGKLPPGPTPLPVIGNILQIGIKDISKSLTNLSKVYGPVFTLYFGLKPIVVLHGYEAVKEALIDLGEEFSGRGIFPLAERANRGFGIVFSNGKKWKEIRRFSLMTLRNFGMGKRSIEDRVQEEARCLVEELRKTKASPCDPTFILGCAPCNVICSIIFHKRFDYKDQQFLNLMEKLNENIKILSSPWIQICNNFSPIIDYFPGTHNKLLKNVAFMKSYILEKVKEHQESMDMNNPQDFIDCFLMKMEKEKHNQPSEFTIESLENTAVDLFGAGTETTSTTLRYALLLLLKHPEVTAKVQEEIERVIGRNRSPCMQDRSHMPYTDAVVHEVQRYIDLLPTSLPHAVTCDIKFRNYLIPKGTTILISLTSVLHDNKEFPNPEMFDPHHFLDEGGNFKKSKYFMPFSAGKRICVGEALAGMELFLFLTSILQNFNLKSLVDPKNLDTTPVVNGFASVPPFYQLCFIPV
Data set [11] can be described thus: AUClast in Sprague-Dawley rat at 10 mg/kg, po. Format: ADME, organism-based. Further details: time 0 - last, dose 10 mg/kg, route oral. As to conditions: plasma.
Data set [12] relates to Rattus norvegicus. The experiment in a line: Effect on behavioral activity in Sprague-Dawley rat assessed as increase in deep sleep at 0.1 mg/kg, po after 3 to 4 hrs. Further details: dose 0.1 mg/kg. It is filed as functional, organism-based.
A short description of data set [13]: Drug level in Sprague-Dawley rat brain at 0.3 mg/kg, po after 0.75 hrs. Format: ADME, organism-based. Further details: dose 0.3 mg/kg, route oral. As to conditions: read-out: Drug uptake.
A short description of data set [14]: Total clearance in Sprague-Dawley rat at 2 mg/kg, iv. Format: ADME, organism-based. Further details: dose 2 mg/kg, route intravenous. The note with it: in vivo.
In data set [15] the test system is Rattus norvegicus. In words: Inhibition of DOI-induced hypolocomotion in Sprague-Dawley rat at 3 mg/kg, po administered 25 mins before DOI challenge measured after 10 mins. Format: functional.
In data set [16] the target is T2, 5-hydroxytryptamine receptor 2C (Homo sapiens, UniProt P28335).
T2 sequence (P28335 whole entry): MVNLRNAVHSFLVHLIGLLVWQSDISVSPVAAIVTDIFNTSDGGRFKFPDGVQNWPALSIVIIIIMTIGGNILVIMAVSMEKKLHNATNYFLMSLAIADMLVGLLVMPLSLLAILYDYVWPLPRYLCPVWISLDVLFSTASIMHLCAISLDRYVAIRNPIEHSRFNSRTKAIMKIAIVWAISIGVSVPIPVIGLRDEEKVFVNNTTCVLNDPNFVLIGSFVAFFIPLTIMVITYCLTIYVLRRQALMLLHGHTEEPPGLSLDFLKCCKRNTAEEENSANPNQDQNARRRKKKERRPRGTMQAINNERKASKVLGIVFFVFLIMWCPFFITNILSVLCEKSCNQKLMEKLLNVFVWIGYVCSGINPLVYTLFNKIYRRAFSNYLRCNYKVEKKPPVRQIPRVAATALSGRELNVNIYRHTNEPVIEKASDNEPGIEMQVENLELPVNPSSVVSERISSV
It is filed as cell-based, HEK293.

Chain of Cytochrome P450 2D6 (P10635 whole entry): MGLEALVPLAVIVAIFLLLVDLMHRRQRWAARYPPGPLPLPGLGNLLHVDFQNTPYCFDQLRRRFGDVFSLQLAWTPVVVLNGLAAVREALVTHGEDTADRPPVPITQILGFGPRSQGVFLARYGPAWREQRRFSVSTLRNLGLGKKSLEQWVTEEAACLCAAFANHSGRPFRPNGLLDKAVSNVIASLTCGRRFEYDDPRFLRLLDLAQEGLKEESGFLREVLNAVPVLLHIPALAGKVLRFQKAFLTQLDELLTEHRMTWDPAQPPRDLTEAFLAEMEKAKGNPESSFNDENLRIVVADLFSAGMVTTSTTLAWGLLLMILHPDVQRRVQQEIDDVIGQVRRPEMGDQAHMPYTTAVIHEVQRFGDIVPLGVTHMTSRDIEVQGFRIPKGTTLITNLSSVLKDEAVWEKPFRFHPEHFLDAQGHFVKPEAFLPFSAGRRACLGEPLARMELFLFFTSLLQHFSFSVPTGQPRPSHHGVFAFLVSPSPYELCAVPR

In the case of `Cn1cc(Br)c(C(=O)N2CCN(CC(=O)c3ccc(F)cc3)CC2)n1`, the values for the half-life in [1] and in data set [2] were 2.1 h and above 1 h, respectively. In the data set on Rattus norvegicus [3], this compound showed an ED50 of 0.3 mg/kg. In addition, the “inhibition (INH)” value on Cytochrome P450 3A4, at Cytochrome P450 1A2, against Cytochrome P450 2C19, against Cytochrome P450 2D6 and on Cytochrome P450 2C9 was “Not Active” in each case. Besides, the Vdss with Rattus norvegicus [4] worked out at 1.5 L/kg. The Activity entry in the data set on Rattus norvegicus [5] was “Dose-dependent effect”. The highest level in data set [6] (Cmax) was 1260 ng/mL. Also, the outcome with Rattus norvegicus [7] and with Rattus norvegicus [12] was Active. In data set [8], this compound had a bioavailability of 59%. The compound further yielded an inhibition in vivo at 1 mg/kg with Rattus norvegicus [9] of 75%. For the same compound, the concentration at 0.75 h in data set [10] was 17.8 ng/mL; in data set [13], 20.8 ng/mL. Moreover, the AUC(0-t) in data set [11] amounted to 1450 ng·h/mL. The clearance in [14] was 66.7 mL/min/kg. In the data set with Rattus norvegicus [15], this compound showed an inhibition in vivo at 3 mg/kg of 65%. The Ki in [16] came to 2.12 µM.
